Reference: patent US4761409A, “Cephem derivatives” (Sumitomo Pharmaceuticals Company, Limited, priority 1984, dated 1988)
≈ marks a conversion by molar mass, not a printed value.

Assays:
Serratia marcescens X100 = test: in vitro antimicrobial activity test (MIC); type: cell-based
[1] = test system: Citrobacter freundii GN346; test: in vitro antimicrobial activity test (MIC); type: cell-based
[2] = test system: Staphylococcus aureus 209P; test: in vitro antimicrobial activity test (MIC); type: cell-based
[3] = test system: Staphylococcus epidermidis IAM1296; test: in vitro antimicrobial activity test (MIC); type: cell-based
[4] = test system: Escherichia coli NIHJ JC-2; test: in vitro antimicrobial activity test (MIC); type: cell-based; details: NIHJJC2
[5] = oral absorbability test: urinary excretion in mice after oral administration; type: in vivo; details: mouse, urine, dose: 50 mg/kg, read-out: Urinary excretion rate in mice after oral administration
bacteria = details: background, compared with commercially available cephem antibiotics; cited from earlier work
[6] = test system: resistant bacteria which produce β-lactamase; details: background, cephem antibiotics for oral administration; cited from earlier work

For `CO/N=C(\C(=O)NC1C(=O)N2C(C(=O)O)=C(CSc3nc(C)ns3)CSC12)c1cscn1` (stereo not drawn) [Example 1, 7-[(Z)-2-Methoxyimino-2-(thiazol-4-yl)acetamido]-3-(3-methyl-1 2,4-thiadiazol-5-yl)thiomethyl-3-cephem-4-carboxylic acid], the MIC (Serratia marcescens X100) was 0.78 µg/mL (≈ 1.52 µM), the MIC [1] was 0.78 µg/mL (≈ 1.52 µM) and the MIC [2] was 0.1 µg/mL (≈ 0.195 µM). For the same compound, the MIC [3] was 1.56 µg/mL (≈ 3.04 µM) and the MIC [4] was 0.1 µg/mL (≈ 0.195 µM).
Work on `CO/N=C(\C(=O)NC1C(=O)N2C(C(=O)O)=C(CSc3ncns3)CS[C@H]12)c1cscn1` (stereo partly drawn) [Example 2, 7-[(Z)-2-Methoxyimino-2-(thiazol-4-yl)acetamido]-3-(1,2,4-thiadiazol-5-yl)thiomethyl-3-cephem-4-carboxylic acid] yielded an MIC (Serratia marcescens X100) of 0.78 µg/mL (≈ 1.56 µM), an MIC [1] of 0.78 µg/mL (≈ 1.56 µM) and an MIC [2] of 0.2 µg/mL (≈ 0.401 µM). The MIC [3] was 1.56 µg/mL (≈ 3.13 µM) and the MIC [4] was 0.2 µg/mL (≈ 0.401 µM).
Compound `CCOC(=O)OC(C)OC(=O)C1=C(CSc2nc(C)ns2)CS[C@@H]2C(NC(=O)/C(=N\OC)c3cscn3)C(=O)N12` (stereo partly drawn) [Example 6, 1-Ethoxycarbonyloxyethyl 7-[(Z)-2-methoxyimino-2-(thiazol-4-yl)acetamido]-3-(3-methyl-1,2,4-thiadiazol-5-yl)thiomethyl-3-cephem-4-carboxylate] has a dose excreted [5] of 32%.
`CO/N=C(\C(=O)NC1C(=O)N2C(C(=O)OCc3oc(=O)oc3C)=C(CSc3ncns3)CS[C@H]12)c1cscn1` (stereo partly drawn) [Example 15, (5-Methyl-2-oxo-1,3-dioxolen-4-yl)methyl-7-[(Z)-2-methoxyimino-2-(thiazol-4-yl)acetamido]-3-(1,2,4-thiadiazol-5-yl)thiomethyl-3-cephem-4-carboxylate] showed a dose excreted [5] of 32%.
For `N[C@@H](C(=O)N[C@@H]1C(=O)N2C(C(=O)O)=C(Cl)CS[C@H]12)c1ccccc1` [cefaclor], the “antimicrobial activity and width of the antimicrobial spectrum” value (“antimicrobial activity and width” for short) (bacteria) is listed as “slightly inferior” and the “activity on resistant bacteria which produce β-lactamase” value [6] is listed as “ineffective”.
In the case of `N[C@@H](C(=O)N[C@@H]1C(=O)N2C(C(=O)O)=C(CSc3c[nH]nn3)CS[C@H]12)c1ccc(O)cc1` [cefatrizine], the “antimicrobial activity and width” value (bacteria) is given as “slightly inferior” and the “activity on resistant bacteria which produce β-lactamase” value [6] is given as “ineffective”.
For `CC1=C(C(=O)O)N2C(=O)[C@@H](NC(=O)[C@H](N)c3ccccc3)[C@H]2SC1` [cephalexin], the “antimicrobial activity and width” value (bacteria) is given as “slightly inferior” and the “activity on resistant bacteria which produce β-lactamase” value [6] is given as “ineffective”.
